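Test compounds were applied to cells in 96-well plates for 48 hours at 5 doses. TGI marks complete inhibition of growth.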
Tests used:
Assay in all cases: NCI-60 cell line screen, 48 h
786-0 renal = system: 786-0 renal
A498 renal = system: A498 renal
A549 NSCLC = system: A549 NSCLC
ACHN renal = system: ACHN renal
BT-549 breast = system: BT-549 breast
CAKI-1 renal = system: CAKI-1 renal
CCRF-CEM leukemia = system: CCRF-CEM leukemia
COLO 205 colon = system: COLO 205 colon
DU-145 prostate = system: DU-145 prostate
EKVX NSCLC = system: EKVX NSCLC
HCC-2998 colon = system: HCC-2998 colon
HCT-116 colon = system: HCT-116 colon
HCT-15 colon = system: HCT-15 colon
HOP-62 NSCLC = system: HOP-62 NSCLC
HOP-92 NSCLC = system: HOP-92 NSCLC
HT29 colon = system: HT29 colon
IGROV1 ovarian = system: IGROV1 ovarian
K-562 leukemia = system: K-562 leukemia
KM12 colon = system: KM12 colon
LOX IMVI melanoma = system: LOX IMVI melanoma
M14 melanoma = system: M14 melanoma
MALME-3M melanoma = system: MALME-3M melanoma
MCF7 breast = system: MCF7 breast
MDA-MB-231 breast = system: MDA-MB-231 breast
MDA-MB-435 = system: MDA-MB-435
MDA-N = system: MDA-N
MOLT-4 leukemia = system: MOLT-4 leukemia
NCI-H226 lung = system: NCI-H226 lung
NCI-H23 lung = system: NCI-H23 lung
NCI/ADR-RES ovarian = system: NCI/ADR-RES ovarian
OVCAR-3 ovarian = system: OVCAR-3 ovarian
OVCAR-5 ovarian = system: OVCAR-5 ovarian
OVCAR-8 ovarian = system: OVCAR-8 ovarian
PC-3 prostate = system: PC-3 prostate
RPMI-8226 leukemia = system: RPMI-8226 leukemia
RXF 393 renal = system: RXF 393 renal
SF-268 CNS = system: SF-268 CNS
SF-295 CNS = system: SF-295 CNS
SF-539 CNS = system: SF-539 CNS
SK-MEL-2 melanoma = system: SK-MEL-2 melanoma
SK-MEL-28 melanoma = system: SK-MEL-28 melanoma
SK-MEL-5 melanoma = system: SK-MEL-5 melanoma
SK-OV-3 ovarian = system: SK-OV-3 ovarian
SN12C renal = system: SN12C renal
SNB-75 CNS = system: SNB-75 CNS
SR leukemia = system: SR leukemia
SW-620 colon = system: SW-620 colon
T-47D breast = system: T-47D breast
TK-10 renal = system: TK-10 renal
U251 CNS = system: U251 CNS
UACC-257 melanoma = system: UACC-257 melanoma
UACC-62 melanoma = system: UACC-62 melanoma

## Cc1ccc(NC(=S)C#N)cc1Cl
786-0 renal
  TGI: > 100 µM
A498 renal
  TGI: 73.7 µM
A549 NSCLC
  TGI: > 100 µM
ACHN renal
  TGI: > 100 µM
BT-549 breast
  TGI: > 100 µM
CAKI-1 renal
  TGI: > 100 µM
CCRF-CEM leukemia
  TGI: 80.3 µM
COLO 205 colon
  TGI: 65.2 µM
DU-145 prostate
  TGI: > 100 µM
EKVX NSCLC
  TGI: > 100 µM
HCC-2998 colon
  TGI: 52.8 µM
HCT-116 colon
  TGI: > 100 µM
HCT-15 colon
  TGI: > 100 µM
HOP-62 NSCLC
  TGI: > 100 µM
HOP-92 NSCLC
  TGI: 62.8 µM
HT29 colon
  TGI: > 100 µM
IGROV1 ovarian
  TGI: 48.4 µM
K-562 leukemia
  TGI: > 100 µM
KM12 colon
  TGI: > 100 µM
LOX IMVI melanoma
  TGI: > 100 µM
M14 melanoma
  TGI: > 100 µM
MALME-3M melanoma
  TGI: > 100 µM
MCF7 breast
  TGI: > 100 µM
MDA-MB-231 breast
  TGI: > 100 µM
MDA-MB-435
  TGI: > 100 µM
MDA-N
  TGI: > 100 µM
MOLT-4 leukemia
  TGI: > 100 µM
NCI-H226 lung
  TGI: > 100 µM
NCI-H23 lung
  TGI: > 100 µM
NCI/ADR-RES ovarian
  TGI: > 100 µM
OVCAR-3 ovarian
  TGI: 53.8 µM
OVCAR-5 ovarian
  TGI: 85.7 µM
OVCAR-8 ovarian
  TGI: > 100 µM
PC-3 prostate
  TGI: > 100 µM
RPMI-8226 leukemia
  TGI: 56.2 µM
RXF 393 renal
  TGI: 97.8 µM
SF-268 CNS
  TGI: > 100 µM
SF-295 CNS
  TGI: > 100 µM
SF-539 CNS
  TGI: 70.5 µM
SK-MEL-2 melanoma
  TGI: > 100 µM
SK-MEL-28 melanoma
  TGI: > 100 µM
SK-MEL-5 melanoma
  TGI: > 100 µM
SK-OV-3 ovarian
  TGI: > 100 µM
SN12C renal
  TGI: > 100 µM
SNB-75 CNS
  TGI: 75 µM
SR leukemia
  TGI: > 100 µM
SW-620 colon
  TGI: > 100 µM
T-47D breast
  TGI: > 100 µM
TK-10 renal
  TGI: > 100 µM
U251 CNS
  TGI: > 100 µM
UACC-257 melanoma
  TGI: > 100 µM
UACC-62 melanoma
  TGI: > 100 µM
